Data taken from patent publication US6838445B1, “Tumor antigen peptide originating in SART-1” (Kyogo Itoh, priority 1998, dated 2005).
Where no end group is shown, it is not given here.

What was measured:
[1] = tested on: KE-4CTL reacting with HLA-A2402-expressing VA-13 cells; experiment: IFN-γ production by KE-4CTL against peptide-pulsed HLA-A2402-expressing VA-13 cells (ELISA); assay type: cell-based, human; conditions: peptide 10 μM for 2 hours on HLA-A2402-expressing VA-13 cells, 18 hours culture with 2×10^4 KE-4CTLs
Protocol: Concretely, when peripheral blood lymphocytes are isolated from HLA-A24 antigen-positive human and candidate peptides are added thereto to stimulate in vitro, it can be evaluated by determining whether or not CTLs that specifically recognize the candidate peptide-pulsed HLA-A24-positive cells are induced. Here, the presence or absence of the induction of the CTLs can be examined, for instance, by assaying an amount of various cytokines (for instance, IFN-γ) produced by CTLs in reaction with the antigen peptide presenting cells by means of enzyme-linked immunosorbent assay (ELISA) or the like. As the antigen peptide presenting cells (target cells) during the assay, there are included, for instance, esophageal cancer cell line KE-4 (FERM BP-5955). In addition, the induction can be examined by the method for assaying CTL toxicity on ^51Cr-labeled antigen peptide presenting cells (^51Cr-release assay, Int. J. Cancer, 58:317, 1994). Further, the induction can be examined by pulsing with candidate peptides to cells resulting from introduction of an expression plasmid into, for instance, COS-7 cells (ATCC No. CRL1651) and VA-13 cells (RIKEN CELL BANK), the expression plasmid for expressing HLA-A24 cDNA [Cancer Res., 55:4248-4252 (1995); Genbank Accession No. M64740]; reacting KE-4CTL (FERM BP-5954), or CTLs prepared in the manner described above, or the like with the resulting cells; and assaying an amount of various cytokines (for instance, IFN-γ) that are produced by CTLs.
HLA-A2402 cDNA (listed in Genbank Accession No. M64740) was obtained from KE-4 in accordance with the description in the publication (Cancer Res., 55:4248, 1995), and a recombinant plasmid was prepared by incorporating the resulting product into an expression vector pCR3 (manufactured by INVITROGEN). This plasmid was transfected to 10^4 cells of VA-13 cells (available from RIKEN CELL BANK; Ann. Med Exp. Biol. Fenn., 44:242, 1966) by lipofectin method in accordance with the publication (J. Exp. Med., 187:277, 1998), to thereby express HLA-A2402. Each of the peptides “725-733,” “740-750,” “746-755,” “746-756” and “758-766*” among those listed in Example 1 was added at 10 μM in 2 hours, and thereafter the mixture was cultured for 18 hours together with 2×10^4 of KE-4CTLs. An amount of IFN-γ produced by KE-4CTLs in the culture supernatant was assayed by ELISA method. […] Thereafter, the resulting product was developed by using Peroxidase Developing Kit T (manufactured by Sumitomo Bakelite Company, Limited), and thereafter its absorbance (405 nm) was determined. The resulting value was quantified by comparing it with the value obtained from standard IFN-γ. […]

[2] = tested on: HLA-A2402-positive KE-4 cells; experiment: Induction of CTLs from peripheral blood lymphocytes by peptide; IFN-γ release against KE-4 target cells (ELISA); assay type: cell-based, human; conditions: for induction of antigen peptide-specific CTLs from peripheral blood lymphocytes: conclusion from Table 1; for reactivity of peptide-stimulated peripheral blood lymphocytes against KE-4 compared with negative control QG56: from Table 1; for IFN-γ (pg/ml) in Supernatant: peripheral blood lymphocytes (HLA-A24 homo healthy donors) stimulated three times with 10 μM peptide, 8×10^4 effectors, target cells KE-4 (1×10^4)
Protocol: (§1) First, lymphocytes were isolated by Ficol method from peripheral blood of healthy donors whose HLA-A locus is A24 homo. The lymphocytes were aliquoted to a 24-well plate so as to be 2×10^6 cells/well, and cultured in a culture medium containing 45% RPMI 1640 medium, 45% AIM-V medium, 10% FCS and 100 U/ml IL-2. Each of the above-mentioned tumor antigen peptides was added to the culture medium so as to have a concentration of 10 μM, to stimulate the peripheral blood lymphocytes. One week later, the above-mentioned tumor antigen peptide was added thereto so as to have a concentration of 10 μM, together with about 2×10^5 of X-ray irradiated (50 Gy) peripheral blood lymphocytes, to carry out a second stimulation of the lymphocytes. After another week, a third stimulation was carried out by repeating the procedures in the same manner as above. After one week from the third stimulation, the cultured lymphocytes were collected. The amount of IFN-γ of the supernatant was assayed by ELISA, the supernatant being produced by reacting the above-mentioned lymphocytes (8×10^4) with HLA-A2402-positive KE-4 cells in which the tumor antigen protein was expressed and with HLA-A2402-negative QG56 cells in which the tumor antigen protein was expressed, respectively, as targeted cells (1×10^4).

[3] = tested on: HLA-A2402-negative QG56 cells; experiment: Induction of CTLs from peripheral blood lymphocytes by peptide; IFN-γ release against QG56 target cells (ELISA); assay type: cell-based; conditions: peripheral blood lymphocytes (HLA-A24 homo healthy donors) stimulated three times with 10 μM peptide, 8×10^4 effectors; target cells QG56 (1×10^4), negative control
Protocol: as §1

Sequence | activity as HLA-A24-restricted tumor antigen peptide (amount of IFN-γ produced by KE-4CTLs, FIG. 1) [1] | induction of antigen peptide-specific CTLs from peripheral blood lymphocytes [2] | reactivity of peptide-stimulated peripheral blood lymphocytes against KE-4 compared with negative control QG56 [2] | IFN-γ (pg/ml) in Supernatant [2] | IFN-γ (pg/ml) in Supernatant [3]
AFRQLSHRF [725-733] | function as HLA-A24-restricted tumor antigen peptides | – | – | – | –
KMKTERRMKKL [740-750] | function as HLA-A24-restricted tumor antigen peptides | – | – | – | –
RMKKLDEEAL [746-755] | function as HLA-A24-restricted tumor antigen peptides | antigen peptide-specific CTLs were induced | stronger reactivities against KE-4 | 595.5 pg/mL | 281.4 pg/mL
RMKKLDEEALL [746-756] | function as HLA-A24-restricted tumor antigen peptides | antigen peptide-specific CTLs were induced | stronger reactivities against KE-4 | 701.5 pg/mL | 392.0 pg/mL
